Test [1] has as its target SETD2 (Homo sapiens, UniProt Q9BYW2). Briefly: Protein methyltransferases selectivity profile. Conditions: control compound. The test is classed as biochemical. From the text:
(§1) Remaining activity [%][a]
(§2) Methyltransferase Control IC50 (M) Control […]
(§3) concerning the buffer solution containing DMSO. The closer to 100% these values are, the weaker the […]
(§4) Table S2. Hook curve amplitudes derived from the TR-FRET ternary complex formation assay with all compounds in the paper. n = number of independent measurements (biological replicates).
(§5) Compound amplitude n Compound amplitude n […]

Test [2] concerns the target SMYD3 (Homo sapiens, UniProt Q9H7B4). Briefly: Protein methyltransferases selectivity profile. The test is classed as biochemical. Conditions: control compound.
Source text: as §1, §2, §3, §4, §5

The target in test [3] is T1, METTL3-14 (Homo sapiens, UniProt Q86U44). Briefly: Protein methyltransferases selectivity profile. The test is classed as biochemical.
Source text: as §1, §2, §3, §4, §5
Target sequence in this assay (Q86U44 whole entry): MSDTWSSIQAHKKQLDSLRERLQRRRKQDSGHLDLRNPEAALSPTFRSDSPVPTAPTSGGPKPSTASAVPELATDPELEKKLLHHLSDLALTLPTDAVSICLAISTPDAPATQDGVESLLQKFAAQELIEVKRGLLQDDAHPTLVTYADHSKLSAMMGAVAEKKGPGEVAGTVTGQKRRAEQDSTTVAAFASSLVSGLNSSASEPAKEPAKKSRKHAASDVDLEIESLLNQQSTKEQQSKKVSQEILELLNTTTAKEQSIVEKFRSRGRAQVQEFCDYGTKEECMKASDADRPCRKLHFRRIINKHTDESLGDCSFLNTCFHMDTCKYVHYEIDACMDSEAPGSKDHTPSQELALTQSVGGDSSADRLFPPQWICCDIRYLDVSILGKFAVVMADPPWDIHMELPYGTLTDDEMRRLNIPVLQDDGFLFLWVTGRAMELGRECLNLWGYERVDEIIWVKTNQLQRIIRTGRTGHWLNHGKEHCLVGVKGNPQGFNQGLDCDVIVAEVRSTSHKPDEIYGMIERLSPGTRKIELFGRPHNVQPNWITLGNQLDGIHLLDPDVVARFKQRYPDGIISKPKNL
Target sequence in this assay (Q9HCE5 whole entry partner): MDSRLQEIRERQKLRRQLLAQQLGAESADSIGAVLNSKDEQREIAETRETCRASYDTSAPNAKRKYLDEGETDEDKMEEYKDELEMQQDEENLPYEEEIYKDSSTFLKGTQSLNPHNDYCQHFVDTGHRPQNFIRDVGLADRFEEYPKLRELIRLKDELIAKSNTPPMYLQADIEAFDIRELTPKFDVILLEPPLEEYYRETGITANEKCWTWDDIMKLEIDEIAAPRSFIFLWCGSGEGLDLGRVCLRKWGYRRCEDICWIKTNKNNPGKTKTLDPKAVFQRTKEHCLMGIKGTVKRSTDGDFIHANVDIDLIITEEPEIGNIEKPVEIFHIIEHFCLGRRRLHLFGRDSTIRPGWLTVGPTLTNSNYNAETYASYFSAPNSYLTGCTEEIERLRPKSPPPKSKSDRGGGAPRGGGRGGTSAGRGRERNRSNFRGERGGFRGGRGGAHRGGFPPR

Test [4] deals with PRDM9 (Homo sapiens, UniProt Q9NQV7). Briefly: Protein methyltransferases selectivity profile. The test is classed as biochemical. The conditions noted are these: control compound.
PRDM9, sequence (Q9NQV7 whole entry, species assumed): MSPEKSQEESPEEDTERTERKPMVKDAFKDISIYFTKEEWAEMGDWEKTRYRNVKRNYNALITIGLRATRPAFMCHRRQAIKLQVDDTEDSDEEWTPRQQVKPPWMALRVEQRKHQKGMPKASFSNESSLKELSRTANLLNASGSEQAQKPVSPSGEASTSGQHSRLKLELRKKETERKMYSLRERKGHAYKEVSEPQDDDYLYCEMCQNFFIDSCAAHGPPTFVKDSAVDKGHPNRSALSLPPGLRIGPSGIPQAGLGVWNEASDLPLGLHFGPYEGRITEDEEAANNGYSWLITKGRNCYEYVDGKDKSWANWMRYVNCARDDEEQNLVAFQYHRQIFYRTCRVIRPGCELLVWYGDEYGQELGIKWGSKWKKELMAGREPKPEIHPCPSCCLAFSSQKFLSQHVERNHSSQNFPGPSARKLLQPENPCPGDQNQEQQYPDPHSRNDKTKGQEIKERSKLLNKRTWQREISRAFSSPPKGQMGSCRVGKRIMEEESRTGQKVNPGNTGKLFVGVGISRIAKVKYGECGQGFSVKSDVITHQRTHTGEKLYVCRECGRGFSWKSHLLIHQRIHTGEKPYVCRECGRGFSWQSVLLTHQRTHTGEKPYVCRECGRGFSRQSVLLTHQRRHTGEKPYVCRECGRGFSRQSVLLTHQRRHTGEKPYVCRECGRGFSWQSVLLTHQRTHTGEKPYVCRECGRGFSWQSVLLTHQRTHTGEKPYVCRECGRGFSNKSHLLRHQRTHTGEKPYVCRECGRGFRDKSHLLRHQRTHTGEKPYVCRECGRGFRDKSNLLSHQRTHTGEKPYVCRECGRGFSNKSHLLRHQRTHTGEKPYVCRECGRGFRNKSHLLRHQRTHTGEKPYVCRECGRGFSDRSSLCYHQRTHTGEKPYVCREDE
Source text: as §1, §2, §3, §4, §5

The target in test [5] is T2, METTL3 (Homo sapiens, UniProt Q86U44+Q96SW2).
T2 construct: Human full-length METTL3-METTL14 was expressed and purified as described above; Human full-length cereblon-DDB1 and 6xHis-CUL4A-6xHis-RBX1 were coexpressed; StrepII (N); GFP (N); TEV site (N); made in house; host or cells: baculovirus/Sf9 insect cells (METTL3-METTL14, cereblon-DDB1, CUL4A-RBX1)
Briefly: In vitro ubiquitination assay, METTL3. The test is classed as biochemical. The conditions noted are these: 2, 8, and 32 μM, 30 °C, 2 h. The protocol:
For the cell-free in vitro ubiquitination of METTL3-METTL14 purified E1, E2, ubiquitin, CUL4A-RBX1, Cereblon-DDB1, and METTL3-METTL14 were used. Human full-length METTL3-METTL14 was expressed and purified as described above. […] Purified recombinant human UBE1 E1 (E-305–025) was purchased from R&D Systems, UbcH5a E2 (23–029) from Merck and ubiquitin (SBB-UP0013) from South Bay Bio. For the ubiquitination reaction, components were mixed to final concentrations of 0.06 μM UBE1, 1.96 μM UbcH5a, 39 μM ubiquitin, 0.33 μM CUL4A-RBX1, 0.33 μM Cereblon-DDB1, 0.5 μM METTL3-METTL14, and different concentrations of compound 14 or me-14 (0, 2, 8, or 32 μM) in reaction buffer (50 mM Tris-HCl pH 7.6, 5 mM MgCl2, 0.2 mM CaCl2, 1 mM DTT, 100 mM NaCl, 0.01% BSA, 0.01% Triton X-100). The final reaction volume was 15 μL. After the addition of 2 mM ATP (or the equal volume of water for the control without ATP), the reaction mixture was incubated for 2 h at 30 °C. […] The signals were quantified by using the Image Studio Lite software. To determine the percentage of ubiquitinated METTL3, the fraction of unmodified METTL3 was calculated by dividing the signal of the band assigned to unmodified METTL3 by the signal of the area containing both the unmodified and (poly)ubiquitinated METTL3 and normalizing to the control without ATP. […]

In test [6] the target is T3, METTL3 (Homo sapiens, UniProt Q86U44).
T3 construct: METTL3–14 degradation up to 70% of the endogenous level; endogenous in cells; host or cells: MOLM-13, PC3, DU145
T3 sequence (Q86U44 2-580 limits assumed): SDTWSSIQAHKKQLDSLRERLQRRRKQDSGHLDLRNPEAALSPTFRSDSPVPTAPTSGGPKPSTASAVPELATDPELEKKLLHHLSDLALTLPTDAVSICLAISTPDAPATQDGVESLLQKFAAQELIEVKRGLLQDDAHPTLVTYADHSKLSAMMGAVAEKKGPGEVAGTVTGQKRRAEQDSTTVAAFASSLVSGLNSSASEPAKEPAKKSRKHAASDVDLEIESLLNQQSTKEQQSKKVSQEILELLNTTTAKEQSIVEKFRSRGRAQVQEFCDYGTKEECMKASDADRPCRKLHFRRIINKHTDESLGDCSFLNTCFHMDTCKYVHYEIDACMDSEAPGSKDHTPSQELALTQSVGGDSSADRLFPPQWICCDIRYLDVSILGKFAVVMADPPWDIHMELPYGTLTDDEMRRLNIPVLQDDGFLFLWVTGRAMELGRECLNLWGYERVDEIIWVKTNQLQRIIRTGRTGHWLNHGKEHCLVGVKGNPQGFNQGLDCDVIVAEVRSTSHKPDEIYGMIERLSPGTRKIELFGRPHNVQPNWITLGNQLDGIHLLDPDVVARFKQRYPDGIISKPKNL
T3 sequence (Q9HCE5 whole entry partner): as the sequence (Q9HCE5 whole entry partner) above
The test can be described thus: Cellular degradation assay (Western blot), METTL3 in MOLM-13. The test is classed as cell-based. The conditions noted are these: MOLM-13, 10 μM. An outline of the steps: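 Cells in RPMI 1640 with 10% FBS were treated with PROTACs or 0.1% DMSO for 24h at 37 °C. METTL3 and METTL14 levels in RIPA lysates were read by Western blot with infrared secondary detection and densitometry, normalised against GAPDH or β-actin.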
A general note: Immunoblotting shows a protein as a band on a membrane.

In test [7] the target is T4, Cereblon (CRBN) (Homo sapiens, UniProt Q96SW2).
T4 construct: endogenous in cells; host or cells: MOLM-13
T4 sequence (Q96SW2 whole entry): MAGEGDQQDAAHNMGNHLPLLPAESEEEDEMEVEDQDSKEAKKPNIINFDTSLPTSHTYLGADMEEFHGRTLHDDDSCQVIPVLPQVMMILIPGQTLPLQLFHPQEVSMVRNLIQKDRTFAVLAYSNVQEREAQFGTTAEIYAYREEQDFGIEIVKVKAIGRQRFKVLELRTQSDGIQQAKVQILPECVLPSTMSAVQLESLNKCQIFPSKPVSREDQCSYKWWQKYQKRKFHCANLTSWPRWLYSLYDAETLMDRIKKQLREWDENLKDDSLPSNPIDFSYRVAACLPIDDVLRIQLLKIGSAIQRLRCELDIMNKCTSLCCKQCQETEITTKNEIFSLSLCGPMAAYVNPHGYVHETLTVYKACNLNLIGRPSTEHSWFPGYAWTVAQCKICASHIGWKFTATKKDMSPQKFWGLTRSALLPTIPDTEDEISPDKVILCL
Briefly: Cellular thermal shift assay (CETSA) in MOLM-13, Cereblon. The test is classed as cell-based. The conditions noted are these: MOLM-13, 54 °C.

For test [8], the target named is T1, METTL3-14. Briefly: Cellular degradation assay (Western blot), METTL3 and/or METTL14 (METTL3–14) in MOLM-13. The test is classed as cell-based. More on the design: METTL3–14 degradation up to 70% of the endogenous level; endogenous in cells; host or cells: MOLM-13, KASUMI-1, THP-1, NOMO-1. The protocol: MOLM-13, NOMO-1, THP-1, Kasumi-1, PC3, and DU145 cell lines were obtained from DSMZ-German Collection of Microorganisms and Cell Cultures GmbH. […] All cell lines were tested negative for mycoplasma contamination (PCR-based assay by Microsynth, Switzerland).
METTL3 (and METTL14) protein degradation was monitored by Western blot. Cells were treated with the indicated concentration of PROTACs or DMSO control (0.1% (v/v)) for 24h, 37 °C with 5% CO2. […] After SDS-PAGE, proteins were transferred to a nitrocellulose membrane, blocked (with 5% milk, 0.5% BSA in TBST buffer), and incubated overnight with primary antibodies. […] Densitometry was performed in Image Studio Lite software and analyzed in GraphPad Prism 9.
Target sequence in this assay (Q86U44 2-580 limits assumed): as the sequence (Q86U44 2-580 limits assumed) above
Target sequence in this assay (Q9HCE5 whole entry partner): as the sequence (Q9HCE5 whole entry partner) above

In test [9] the target is T3, METTL3. Briefly: Cellular thermal shift assay (CETSA) in MOLM-13, METTL3. The class given is cell-based. The conditions noted are these: MOLM-13, 54 °C. The protocol:
One million of MOLM-13 cells were suspended in 100 μL of PBS (10010023, Thermo Fisher Scientific) containing 2× protease inhibitor cocktail (11697498001, Roche), for each condition tested. Cells were incubated with compounds or DMSO control (1% (v/v)) for 1 h at 37 °C. They were then heat treated at 54 °C in a thermoblock for 3 min, followed by cooling to room temperature (3 min). Next, samples were lysed by threefreeze–thaw cycles in liquid nitrogen and centrifuge at 16000 g for 30 min, 4 °C. Equal volumes of control and tested samples (12 μL) were analyzed by Western blot. The changes in the amount of METTL3 protein (after normalization for β-actin and/or GAPDH) were monitored by performing densitometry in Image Studio Lite software and analyzed in GraphPad Prism 9.

Entries after “also recorded” stand apart in the source; their conditions may differ.

What is called IC50 is the concentration that inhibits the measured activity by half. Read a low IC50 as greater potency.

SMYD3, sequence (Q9H7B4 whole entry): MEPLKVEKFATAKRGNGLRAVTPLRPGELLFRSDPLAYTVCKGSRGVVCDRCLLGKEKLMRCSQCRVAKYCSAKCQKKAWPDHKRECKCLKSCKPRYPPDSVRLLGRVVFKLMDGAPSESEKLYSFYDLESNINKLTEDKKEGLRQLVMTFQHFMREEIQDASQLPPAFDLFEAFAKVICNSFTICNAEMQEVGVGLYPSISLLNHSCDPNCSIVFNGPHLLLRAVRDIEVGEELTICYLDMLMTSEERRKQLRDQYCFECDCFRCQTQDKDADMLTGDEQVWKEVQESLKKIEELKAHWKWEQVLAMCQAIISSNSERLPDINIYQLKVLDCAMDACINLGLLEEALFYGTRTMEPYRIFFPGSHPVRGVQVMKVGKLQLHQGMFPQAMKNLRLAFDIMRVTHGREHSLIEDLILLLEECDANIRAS

For `Nc1ncnc2c1ncn2[C@@H]1O[C@H](CSCC[C@H](N)C(=O)O)[C@@H](O)[C@H]1O` [SAH, S-(5’-adenosyl)-L-homocysteine], the IC50 in test [1] amounted to 1.38 µM; in [2] it was 8.48 µM; in [3] it was 0.153 µM.
Take `CN1C(=O)[C@@]23C[C@]4([C@]56C[C@@]78SS[C@@](CO)(C(=O)N7[C@H]5Nc5ccccc56)N(C)C8=O)c5ccccc5N[C@@H]4N2C(=O)[C@]1(CO)SS3` [Chaetocin]: the IC50 in test [4] was determined as 0.905 µM.
With `CN1C(=O)CCC(N2C(=O)c3cccc(NCCCC(=O)NCc4cccc(CNc5cc(N6CCC7(CC6)CN(c6cc(F)c(CN8CCC(C)(C)CC8)cc6F)CC(=O)N7)ncn5)c4)c3C2=O)C1=O` (stereo not shown) [me-14], in test [5], the “ubiquitination of METTL3 compared to the control without compound” value is reported as “does not increase”. For the same compound, in test [6], the METTL3 levels result is listed as “increased METTL3 levels”. Moreover, in test [7], the “stabilization of Cereblon (CETSA)” value is “not of CRBN”. The “degradation of METTL3 and/or METTL14” value in [8] (MOLM-13, 2 μM, 24 h, Western blot) is reported as “did not show any METTL3–14 degradation”. Also, in test [8] (MOLM-13, five concentrations), the “degradation of METTL3 and METTL14, concentration dependence” value is recorded as “no degradation”. Further, the “stabilization of METTL3 (CETSA)” value in test [9] is on record as “stabilize METTL3 in a concentration-dependent manner; also recorded: stabilization of METTL3”.

The values above are taken from PMC10900215 (JACS Au, 2024).
